Each structure is given as a SMILES string. Like-named read-outs stand apart in the source and are kept apart here.

This test addresses T1, Chymase purified from human skin mast cells (Homo sapiens, UniProt P23946).
T1 construct: Chymase purified from human skin mast cells was obtained from Calbiochem; purchased Calbiochem (Merck Biosciences, San Diego, Calif., USA); host or cells: human skin mast cells (natural source)
T1 sequence (P23946 22-247): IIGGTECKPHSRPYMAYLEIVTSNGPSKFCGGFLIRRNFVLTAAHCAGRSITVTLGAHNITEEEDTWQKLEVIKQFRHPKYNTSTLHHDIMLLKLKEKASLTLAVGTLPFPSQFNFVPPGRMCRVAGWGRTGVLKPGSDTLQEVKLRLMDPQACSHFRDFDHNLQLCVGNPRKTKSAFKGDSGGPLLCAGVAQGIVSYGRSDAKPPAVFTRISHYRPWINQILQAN
The experiment in a line: chymase peptide substrate assay (AAPF-AMC fluorescence). Type of test: biochemical. The method, then:
The peptide was synthesized with a purity of 95% from Bachem, Bubendorf, Switzerland). Chymase purified from human skin mast cells was obtained from Calbiochem (Merck Biosciences, San Diego, Calif., USA). The assay buffer was 0.15 M NaCl, 0.05M, Tris HCl, 0.05% CHAPS (3-[(3-Cholamidopropyl)-dimethylammonio]-1-propane sulphonate), 0.1 mg/ml Heparin (Heparin sodium, Sigma, porcine intestinal mucosa), 0.02 mM AAPF-substrate, 1 nM Chymase at pH 7.4. The assay was performed in 96-well plates (Packard Optiplate), with a 0.05 ml volume at room temperature. Chymase activity was indicated by the initial rate of increase in fluorescence at 340/440 nm (excitation/emission) from free 7-amino-4-methylcoumarin released from the substrate. Inhibition of the activity by inhibitory compounds was read after 30 min pre-incubation with the chymase at room temperature in assay buffer without AAPF-substrate. The assay was then started by addition of the indicated concentration of AAPF-substrate.

Where [1] appears, read: 0.02 mM AAPF-substrate, 1 nM Chymase, pH 7.4, room temperature, 30 min pre-incubation, read-out: IC50.

For the molecule `Cc1c(S(=O)(=O)Nc2ccc(-c3ccncc3)cc2C(F)(F)F)sc2ccc(F)cc12` [Example 2, 5-Fluoro-3-methyl-benzo[b]thiophene-2-sulfonic acid(4-pyridin-4-yl-2-trifluoromethyl-phenyl)-amide], inhibition was half-maximal at 35 nM (IC50).

Regarding `CCc1cc(-c2ccncc2)ccc1NS(=O)(=O)c1sc2ccc(F)cc2c1C` [Example 16, 5-Fluoro-3-methyl-benzo[b]thiophene-2-sulfonic acid(2-ethyl-4-pyridin-4-yl-phenyl)-amide], the IC50 under setting [1] is 106 nM.

Consider `Cc1c(S(=O)(=O)Nc2ccc(C3CCNCC3)cc2S(C)(=O)=O)sc2ccc(F)cc12` [Example 21, 5-Fluoro-3-methyl-benzo[b]thiophene-2-sulfonic acid(2-methanesulfonyl-4-piperidin-4-yl-phenyl)-amide], for which the IC50 under setting [1] came out at 3 nM.

The record behind these values is US8158655B2, “Sulfonamide derivatives” (Hoffmann-La Roche Inc., priority 2007, dated 2012).
